Measured values taken from patent US20120270237A9, “METHODS FOR THE IDENTIFICATION OF KINASE INTERACTING MOLECULES AND FOR THE PURIFICATION OF KINASE PROTEINS” (Cellzone AG, priority 2009, published 2012).

Experiments:
Test in all cases: Kinobeads competition binding with immobilized CZC25342, mixed HeLa placenta lysates (Example 5, Table 7)
[1] = target: T1, kinases from mixed HeLa placenta lysates (Homo sapiens, UniProt Q04771); details: kinase ALK2; 10 μM free compound; HeLa Placenta lysate mix
T1 construct: capturing and identification of kinases from mixed HeLa placenta lysates; endogenous in cells; host or cells: mixed lysate of HeLa cells and placenta tissue
Protocol: (§1) To one aliquot of cell lysate 10 μM of the free compound (FIG. 2, CZC25342) was added and allowed to bind to proteins in the lysate. Then the affinity matrix with the immobilized compound was added to capture proteins that were not interacting with the previously added free compound. Beads were separated from the lysate and bead bound proteins were eluted in SDS sample buffer and subsequently separated by SDS-Polyacrylamide gel electrophoresis (FIG. 11). Suitable gel bands were cut out and subjected to in-gel proteolytic digestion with trypsin. The second lysate aliquot was processed identically, however no free compound was added (DMSO solvent control). Peptides originating from samples 1 and 2 were labeled with iTRAQ reagents (iTRAQ 114 and iTRAQ 117) and the combined samples were analyzed with a nano-flow liquid chromatography system coupled online to a tandem mass spectrometer (LC-MS/MS) experiment followed by iTRAQ reporter ion quantification in the MS/MS spectra as described in Example 2. The identified kinases are shown in Table 7 including the percent competition values for the sample to which 10 μM free compound had been added. In total of 83 different kinases were identified and competed by different degrees.

[2] = target: T2, kinases from mixed HeLa placenta lysates (Homo sapiens, UniProt O43353); details: kinase RIPK2; 10 μM free compound; HeLa Placenta lysate mix
T2 construct: capturing and identification of kinases from mixed HeLa placenta lysates; endogenous in cells; host or cells: mixed lysate of HeLa cells and placenta tissue
Protocol: as §1

[3] = target: T3, kinases from mixed HeLa placenta lysates (Homo sapiens, UniProt P51956); details: kinase NEK3; 10 μM free compound; HeLa Placenta lysate mix
T3 construct: capturing and identification of kinases from mixed HeLa placenta lysates; endogenous in cells; host or cells: mixed lysate of HeLa cells and placenta tissue
T3 sequence (P51956 whole entry): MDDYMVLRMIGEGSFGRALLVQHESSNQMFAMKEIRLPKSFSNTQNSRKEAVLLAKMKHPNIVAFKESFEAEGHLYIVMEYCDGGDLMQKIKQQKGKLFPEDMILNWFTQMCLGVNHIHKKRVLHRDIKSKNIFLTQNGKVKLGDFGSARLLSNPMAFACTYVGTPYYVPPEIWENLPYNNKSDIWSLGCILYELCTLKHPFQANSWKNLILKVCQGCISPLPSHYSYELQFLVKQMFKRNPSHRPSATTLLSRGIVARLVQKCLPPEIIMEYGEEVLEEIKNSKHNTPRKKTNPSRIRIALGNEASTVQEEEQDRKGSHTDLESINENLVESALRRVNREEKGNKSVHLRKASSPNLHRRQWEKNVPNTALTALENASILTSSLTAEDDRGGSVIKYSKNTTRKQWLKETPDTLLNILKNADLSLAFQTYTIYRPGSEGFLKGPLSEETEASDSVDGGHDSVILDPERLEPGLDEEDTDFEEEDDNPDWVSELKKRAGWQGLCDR
Protocol: as §1

[4] = target: T4, kinases from mixed HeLa placenta lysates (Homo sapiens, UniProt P15735); details: kinase PHKg2; 10 μM free compound; HeLa Placenta lysate mix
T4 construct: capturing and identification of kinases from mixed HeLa placenta lysates; endogenous in cells; host or cells: mixed lysate of HeLa cells and placenta tissue
T4 sequence (P15735 whole entry): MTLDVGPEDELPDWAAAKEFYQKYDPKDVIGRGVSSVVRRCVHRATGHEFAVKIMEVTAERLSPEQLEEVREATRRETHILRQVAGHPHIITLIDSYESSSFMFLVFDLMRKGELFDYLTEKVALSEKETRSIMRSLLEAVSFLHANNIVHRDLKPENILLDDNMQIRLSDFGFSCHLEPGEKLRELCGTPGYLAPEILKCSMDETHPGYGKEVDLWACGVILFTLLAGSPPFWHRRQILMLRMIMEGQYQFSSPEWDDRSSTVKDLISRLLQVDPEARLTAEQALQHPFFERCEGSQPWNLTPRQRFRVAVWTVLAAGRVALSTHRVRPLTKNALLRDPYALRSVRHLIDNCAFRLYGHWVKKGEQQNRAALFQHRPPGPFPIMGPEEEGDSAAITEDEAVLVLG
Protocol: as §1

[5] = target: T5, kinases from mixed HeLa placenta lysates (Homo sapiens, UniProt P35968); details: kinase KDR; 10 μM free compound; HeLa Placenta lysate mix
T5 construct: capturing and identification of kinases from mixed HeLa placenta lysates; endogenous in cells; host or cells: mixed lysate of HeLa cells and placenta tissue
T5 sequence (P35968 20-1356): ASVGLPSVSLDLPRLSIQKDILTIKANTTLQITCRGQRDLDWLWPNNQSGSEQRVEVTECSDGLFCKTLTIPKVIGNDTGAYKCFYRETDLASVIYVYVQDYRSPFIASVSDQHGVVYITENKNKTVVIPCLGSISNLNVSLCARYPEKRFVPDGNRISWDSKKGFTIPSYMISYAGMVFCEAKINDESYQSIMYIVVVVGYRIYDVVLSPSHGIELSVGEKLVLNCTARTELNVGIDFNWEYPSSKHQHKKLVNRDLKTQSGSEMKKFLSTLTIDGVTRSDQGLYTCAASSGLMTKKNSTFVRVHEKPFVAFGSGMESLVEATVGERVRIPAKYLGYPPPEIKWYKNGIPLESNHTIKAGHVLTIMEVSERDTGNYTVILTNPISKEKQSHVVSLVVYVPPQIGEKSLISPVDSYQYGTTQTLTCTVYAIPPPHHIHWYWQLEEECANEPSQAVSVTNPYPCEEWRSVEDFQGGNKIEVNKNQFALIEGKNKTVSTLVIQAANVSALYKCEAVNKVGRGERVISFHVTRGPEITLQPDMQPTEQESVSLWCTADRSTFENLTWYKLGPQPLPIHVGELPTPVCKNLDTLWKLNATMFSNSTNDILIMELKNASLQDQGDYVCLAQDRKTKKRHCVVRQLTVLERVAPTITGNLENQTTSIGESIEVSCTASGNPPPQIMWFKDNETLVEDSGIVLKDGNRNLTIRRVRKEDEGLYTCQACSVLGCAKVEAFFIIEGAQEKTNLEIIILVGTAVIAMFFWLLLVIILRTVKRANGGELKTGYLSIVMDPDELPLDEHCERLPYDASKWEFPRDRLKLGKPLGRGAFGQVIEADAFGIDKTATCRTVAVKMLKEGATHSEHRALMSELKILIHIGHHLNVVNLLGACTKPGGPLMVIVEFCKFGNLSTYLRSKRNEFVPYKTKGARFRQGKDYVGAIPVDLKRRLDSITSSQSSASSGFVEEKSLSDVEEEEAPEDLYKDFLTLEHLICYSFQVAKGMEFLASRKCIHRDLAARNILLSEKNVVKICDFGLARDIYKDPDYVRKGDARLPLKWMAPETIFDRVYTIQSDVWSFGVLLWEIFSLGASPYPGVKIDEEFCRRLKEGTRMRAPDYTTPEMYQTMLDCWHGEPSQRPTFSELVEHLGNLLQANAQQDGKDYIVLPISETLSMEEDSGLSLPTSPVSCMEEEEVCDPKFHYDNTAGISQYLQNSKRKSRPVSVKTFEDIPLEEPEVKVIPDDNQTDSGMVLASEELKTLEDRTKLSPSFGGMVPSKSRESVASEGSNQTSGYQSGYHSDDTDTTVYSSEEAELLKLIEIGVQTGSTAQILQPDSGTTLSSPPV
Protocol: as §1

[6] = target: T6, kinases from mixed HeLa placenta lysates (Homo sapiens, UniProt P36897); details: kinase TGFbR1; 10 μM free compound; HeLa Placenta lysate mix
T6 construct: capturing and identification of kinases from mixed HeLa placenta lysates; endogenous in cells; host or cells: mixed lysate of HeLa cells and placenta tissue
T6 sequence (P36897 34-503): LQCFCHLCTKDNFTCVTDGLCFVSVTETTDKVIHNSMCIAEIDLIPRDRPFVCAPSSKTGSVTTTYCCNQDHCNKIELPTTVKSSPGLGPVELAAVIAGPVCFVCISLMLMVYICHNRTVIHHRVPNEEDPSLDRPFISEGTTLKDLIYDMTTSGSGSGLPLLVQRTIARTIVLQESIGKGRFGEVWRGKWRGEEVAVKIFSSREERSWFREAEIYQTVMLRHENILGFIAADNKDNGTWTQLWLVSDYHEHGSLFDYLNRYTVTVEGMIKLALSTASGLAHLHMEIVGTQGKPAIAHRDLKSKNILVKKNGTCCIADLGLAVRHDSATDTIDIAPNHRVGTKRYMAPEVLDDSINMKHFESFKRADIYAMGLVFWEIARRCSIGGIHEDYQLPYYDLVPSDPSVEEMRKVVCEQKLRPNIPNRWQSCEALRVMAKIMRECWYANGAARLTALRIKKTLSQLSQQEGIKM
Protocol: as §1

[7] = target: T7, kinases from mixed HeLa placenta lysates (Homo sapiens, UniProt P16591); details: kinase FER; 10 μM free compound; HeLa Placenta lysate mix
T7 construct: capturing and identification of kinases from mixed HeLa placenta lysates; endogenous in cells; host or cells: mixed lysate of HeLa cells and placenta tissue
T7 sequence (P16591 whole entry): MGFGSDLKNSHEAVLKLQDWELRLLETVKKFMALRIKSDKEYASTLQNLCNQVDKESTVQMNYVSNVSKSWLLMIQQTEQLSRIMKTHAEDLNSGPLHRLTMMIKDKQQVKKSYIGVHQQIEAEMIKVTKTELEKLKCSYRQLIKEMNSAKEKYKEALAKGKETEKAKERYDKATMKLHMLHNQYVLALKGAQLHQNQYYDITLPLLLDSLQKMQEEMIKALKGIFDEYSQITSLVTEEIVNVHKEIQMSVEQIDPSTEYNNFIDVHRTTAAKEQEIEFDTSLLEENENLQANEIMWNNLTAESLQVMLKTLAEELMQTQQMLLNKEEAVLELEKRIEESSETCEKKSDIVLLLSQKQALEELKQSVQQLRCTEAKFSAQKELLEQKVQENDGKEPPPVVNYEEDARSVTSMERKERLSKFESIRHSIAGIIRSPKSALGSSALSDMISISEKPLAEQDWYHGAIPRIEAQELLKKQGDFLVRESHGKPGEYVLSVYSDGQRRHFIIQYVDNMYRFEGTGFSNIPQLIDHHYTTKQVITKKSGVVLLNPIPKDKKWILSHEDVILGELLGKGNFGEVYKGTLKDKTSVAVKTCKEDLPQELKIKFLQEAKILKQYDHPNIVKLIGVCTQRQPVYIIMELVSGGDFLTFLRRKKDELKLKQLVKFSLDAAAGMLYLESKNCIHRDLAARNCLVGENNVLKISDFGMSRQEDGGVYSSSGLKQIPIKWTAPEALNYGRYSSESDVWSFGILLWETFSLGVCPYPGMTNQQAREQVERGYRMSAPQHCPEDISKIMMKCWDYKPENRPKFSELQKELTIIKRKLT
Protocol: as §1

[8] = target: T8, kinases from mixed HeLa placenta lysates (Homo sapiens, UniProt Q05397); details: kinase FAK; 10 μM free compound; HeLa Placenta lysate mix
T8 construct: capturing and identification of kinases from mixed HeLa placenta lysates; endogenous in cells; host or cells: mixed lysate of HeLa cells and placenta tissue
Protocol: as §1

[9] = target: T9, kinases from mixed HeLa placenta lysates (Homo sapiens, UniProt P28482); details: kinase Erk2; 10 μM free compound; HeLa Placenta lysate mix
T9 construct: capturing and identification of kinases from mixed HeLa placenta lysates; endogenous in cells; host or cells: mixed lysate of HeLa cells and placenta tissue
T9 sequence (P28482 whole entry): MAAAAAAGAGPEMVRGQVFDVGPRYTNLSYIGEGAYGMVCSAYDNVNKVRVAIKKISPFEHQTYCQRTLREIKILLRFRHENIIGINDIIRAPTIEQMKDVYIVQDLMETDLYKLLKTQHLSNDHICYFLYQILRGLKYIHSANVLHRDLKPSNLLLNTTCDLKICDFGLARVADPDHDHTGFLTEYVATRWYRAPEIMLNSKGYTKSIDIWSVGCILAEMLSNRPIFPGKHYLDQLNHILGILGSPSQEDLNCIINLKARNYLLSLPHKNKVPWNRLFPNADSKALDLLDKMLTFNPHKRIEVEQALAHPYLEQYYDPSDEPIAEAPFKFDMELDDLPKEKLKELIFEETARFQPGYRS
Protocol: as §1

[10] = target: T10, kinases from mixed HeLa placenta lysates (Homo sapiens, UniProt Q14164); details: kinase IKKe; 10 μM free compound; HeLa Placenta lysate mix
T10 construct: capturing and identification of kinases from mixed HeLa placenta lysates; endogenous in cells; host or cells: mixed lysate of HeLa cells and placenta tissue
Protocol: as §1

[11] = target: T11, kinases from mixed HeLa placenta lysates (Homo sapiens, UniProt P36894); details: kinase BMPR1A; 10 μM free compound; HeLa Placenta lysate mix
T11 construct: capturing and identification of kinases from mixed HeLa placenta lysates; endogenous in cells; host or cells: mixed lysate of HeLa cells and placenta tissue
Protocol: as §1

[12] = target: T12, kinases from mixed HeLa placenta lysates (Homo sapiens, UniProt P08581); details: kinase MET; 10 μM free compound; HeLa Placenta lysate mix
T12 construct: capturing and identification of kinases from mixed HeLa placenta lysates; endogenous in cells; host or cells: mixed lysate of HeLa cells and placenta tissue
Protocol: as §1

[13] = target: T13, kinases from mixed HeLa placenta lysates (Homo sapiens, UniProt Q15349); details: kinase RSK3; 10 μM free compound; HeLa Placenta lysate mix
T13 construct: capturing and identification of kinases from mixed HeLa placenta lysates; endogenous in cells; host or cells: mixed lysate of HeLa cells and placenta tissue
Protocol: as §1

[14] = target: T14, kinases from mixed HeLa placenta lysates (Homo sapiens, UniProt O75676); details: kinase MSK2; 10 μM free compound; HeLa Placenta lysate mix
T14 construct: capturing and identification of kinases from mixed HeLa placenta lysates; endogenous in cells; host or cells: mixed lysate of HeLa cells and placenta tissue
Protocol: as §1

[15] = target: T15, kinases from mixed HeLa placenta lysates (Homo sapiens, UniProt O95382); details: kinase MAP3K6; 10 μM free compound; HeLa Placenta lysate mix
T15 construct: capturing and identification of kinases from mixed HeLa placenta lysates; endogenous in cells; host or cells: mixed lysate of HeLa cells and placenta tissue
Protocol: as §1

[16] = target: T16, kinases from mixed HeLa placenta lysates (Homo sapiens, UniProt P17252); details: kinase PKCa; 10 μM free compound; HeLa Placenta lysate mix
T16 construct: capturing and identification of kinases from mixed HeLa placenta lysates; endogenous in cells; host or cells: mixed lysate of HeLa cells and placenta tissue
Protocol: as §1

[17] = target: T17, kinases from mixed HeLa placenta lysates (Homo sapiens, UniProt Q9UHD2); details: kinase TBK1; 10 μM free compound; HeLa Placenta lysate mix
T17 construct: capturing and identification of kinases from mixed HeLa placenta lysates; endogenous in cells; host or cells: mixed lysate of HeLa cells and placenta tissue
Protocol: as §1

[18] = target: T18, kinases from mixed HeLa placenta lysates (Homo sapiens, UniProt P06241); details: kinase FYN; 10 μM free compound; HeLa Placenta lysate mix
T18 construct: capturing and identification of kinases from mixed HeLa placenta lysates; endogenous in cells; host or cells: mixed lysate of HeLa cells and placenta tissue
T18 sequence (P06241 whole entry): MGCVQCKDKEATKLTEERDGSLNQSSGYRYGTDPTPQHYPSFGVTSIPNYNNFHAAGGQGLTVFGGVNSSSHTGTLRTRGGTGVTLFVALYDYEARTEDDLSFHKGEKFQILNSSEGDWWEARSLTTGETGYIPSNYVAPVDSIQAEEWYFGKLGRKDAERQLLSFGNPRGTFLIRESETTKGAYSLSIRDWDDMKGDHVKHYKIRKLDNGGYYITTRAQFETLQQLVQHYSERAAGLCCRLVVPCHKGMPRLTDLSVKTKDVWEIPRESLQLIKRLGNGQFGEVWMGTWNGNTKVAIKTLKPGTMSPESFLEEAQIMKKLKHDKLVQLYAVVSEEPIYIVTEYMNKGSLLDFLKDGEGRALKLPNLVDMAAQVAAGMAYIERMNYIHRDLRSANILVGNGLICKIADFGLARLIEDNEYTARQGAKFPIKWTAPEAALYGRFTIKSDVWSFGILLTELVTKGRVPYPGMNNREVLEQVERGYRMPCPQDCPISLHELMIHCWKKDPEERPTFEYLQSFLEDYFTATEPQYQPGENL
Protocol: as §1

[19] = target: T19, kinases from mixed HeLa placenta lysates (Homo sapiens, UniProt P27448); details: kinase MARK3; 10 μM free compound; HeLa Placenta lysate mix
T19 construct: capturing and identification of kinases from mixed HeLa placenta lysates; endogenous in cells; host or cells: mixed lysate of HeLa cells and placenta tissue
Protocol: as §1

[20] = target: T20, kinases from mixed HeLa placenta lysates (Homo sapiens, UniProt P68400); details: kinase CK2a1; 10 μM free compound; HeLa Placenta lysate mix
T20 construct: capturing and identification of kinases from mixed HeLa placenta lysates; endogenous in cells; host or cells: mixed lysate of HeLa cells and placenta tissue
T20 sequence (P68400 whole entry): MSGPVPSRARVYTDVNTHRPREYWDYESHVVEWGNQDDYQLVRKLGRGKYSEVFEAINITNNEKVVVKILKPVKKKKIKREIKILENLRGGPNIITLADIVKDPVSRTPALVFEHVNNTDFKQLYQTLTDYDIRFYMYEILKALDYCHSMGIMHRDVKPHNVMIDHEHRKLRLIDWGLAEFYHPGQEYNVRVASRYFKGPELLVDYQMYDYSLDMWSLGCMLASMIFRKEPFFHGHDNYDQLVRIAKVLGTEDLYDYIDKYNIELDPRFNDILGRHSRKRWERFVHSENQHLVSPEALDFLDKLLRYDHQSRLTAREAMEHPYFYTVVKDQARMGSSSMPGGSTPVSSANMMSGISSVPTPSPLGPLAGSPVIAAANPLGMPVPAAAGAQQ
Protocol: as §1

[21] = target: T21, kinases from mixed HeLa placenta lysates (Homo sapiens, UniProt P43405); details: kinase SYK; 10 μM free compound; HeLa Placenta lysate mix
T21 construct: capturing and identification of kinases from mixed HeLa placenta lysates; endogenous in cells; host or cells: mixed lysate of HeLa cells and placenta tissue
Protocol: as §1

[22] = target: T22, kinases from mixed HeLa placenta lysates (Homo sapiens, UniProt Q16513); details: kinase PKN2; 10 μM free compound; HeLa Placenta lysate mix
T22 construct: capturing and identification of kinases from mixed HeLa placenta lysates; endogenous in cells; host or cells: mixed lysate of HeLa cells and placenta tissue
Protocol: as §1

[23] = target: T23, kinases from mixed HeLa placenta lysates (Homo sapiens, UniProt O43318); details: kinase MAP3K7; 10 μM free compound; HeLa Placenta lysate mix
T23 construct: capturing and identification of kinases from mixed HeLa placenta lysates; endogenous in cells; host or cells: mixed lysate of HeLa cells and placenta tissue
Protocol: as §1

[24] = target: T24, kinases from mixed HeLa placenta lysates (Homo sapiens, UniProt P78527); details: kinase DNAPK; 10 μM free compound; HeLa Placenta lysate mix
T24 construct: capturing and identification of kinases from mixed HeLa placenta lysates; endogenous in cells; host or cells: mixed lysate of HeLa cells and placenta tissue
Protocol: as §1

Competition % ALK2 [1]: 96.4%
Competition % RIPK2 [2]: 94.4%
Competition % NEK3 [3]: 94.8%
Competition % PHKg2 [4]: 93.4%
Competition % KDR [5]: 92.5%
Competition % TGFbR1 [6]: 95.6%
Competition % FER [7]: 96.7%
Competition % FAK [8]: 96%
Competition % Erk2 [9]: 48.5%
Competition % IKKe [10]: 69%
Competition % BMPR1A [11]: 84.1%
Competition % MET [12]: 94.2%
Competition % RSK3 [13]: 95.5%
Competition % MSK2 [14]: 93.2%
Competition % MAP3K6 [15]: 91.6%
Competition % PKCa [16]: 96.4%
Competition % TBK1 [17]: 88.8%
Competition % FYN [18]: 93.2%
Competition % MARK3 [19]: 96.2%
Competition % CK2a1 [20]: 95.2%
Competition % SYK [21]: 94.8%
Competition % PKN2 [22]: 98%
Competition % MAP3K7 [23]: 85.8%
Competition % DNAPK [24]: 89.2%
Structure (SMILES): CS(=O)(=O)Nc1ccccc1Nc1nc(Nc2cccc(OCCN)c2)ncc1F [CZC25342, N-(2-(2-(3-(2-aminoethoxy)phenylamino)-5-fluoropyrimidin-4-ylamino)phenyl)methanesulfonamide]
